Measured values from PMC4557289, “Thymoproteasomes produce unique peptide motifs for positive selection of CD8^+ T cells” (Nature Communications, 2015).
“Also recorded” adds a separate entry of the source.

Legend:
[1] = tested on: thymus lobes from Tap1^−/− OT-I TCR transgenic mice; test: fetal thymus organ culture (FTOC) of OT-I thymocytes; format: cell-based, mouse; settings: E15 thymus lobes, peptide 20 μM, 3 days, result in words
Method: FTOC was essentially performed as described previously. Embryonic mice on day 15 of gestation were obtained from Tap1^−/− OT-I TCR transgenic mice. Thymus lobes were cultured on Isopore membrane filters (Millipore) placed on Gelfoam sponge (Pfizer) floated in medium. Peptides were added at a concentration of 20 μM. After 3 days in the culture, thymocytes were stained with antibodies specific for CD4 (GK1.5), CD8 (53-6.7) and Vα2 (B20.1) and analysed using flow cytometry; staining antibodies were obtained from Biolegend and were used at 10 μg ml^−1.

OT-I thymocytes = settings: known classification of OVAp and variants, Fig. 6a; cited from earlier work
Source text: To examine whether these peptide features play roles in thymic selection, we employed the OVA-specific TCR transgenic line OT-I, which is the best-studied model of amino-acid substitution in MHC-associated peptides for thymic selection of functionally competent MHC-I-restricted T cells. […] We then tested OVAp variant peptides with tCP ... || Figure 6 OVAp peptide variants with tCP-dependent motifs show lower affinities to OT-I TCR. (a) List of OVAp variants used for assays in b–d and Fig. 7a,b. (b) Binding of peptide/H-2K^b tetramers to CD4/CD8 double-positive thymocytes from Tap1^−/− OT-I TCR-transgenic mice. (c) Dulling of CD4/CD8 co-receptors in OT-I thymocytes by OVAp variants. Thymocytes from Tap1^−/− OT-I TCR-transgenic mice (n=3) were stimulated in the presence of peptides at indicated concentrations and irradiated splenocytes from B6-Ly5.1 mice. (d) Activation of mature OT-I cells by OVAp variants. Splenocytes from Rag2^−/ ...

OT-I TCR [2] = test: CD4/CD8 dulling assay, OT-I thymocytes; format: cell-based, mouse; settings: thymocytes from Tap1^−/− OT-I TCR-transgenic mice (n=3) with peptide and irradiated B6-Ly5.1 splenocytes, 18 h, flow cytometry; Fig. 6c; result in words
Method: Dulling assay was performed as described[45][46] with minor modifications. Thymocytes from Tap1^−/− OT-I TCR transgenic mice were stimulated in the presence of peptides and irradiated splenocytes from B6-Ly5.1 mice (CD45.1^+CD45.2^−). Female mice at 6–8 weeks of age were used for experiments. After 18 h, thymocytes were stained with antibodies specific for CD4 (GK1.5), CD8 (53-6.7), CD45.1 (A20) and CD45.2 (104) and analysed using flow cytometry (antibodies were obtained from Biolegend and used at 10 μg ml^−1). Specific dulling of CD4 and CD8 expression induced by peptide stimulation was calculated as previously described.

OT-I TCR [3] = test: MHC-tetramer-binding assay (peptide/H-2K^b tetramers); design: species or system mouse; settings: peptide/H-2K^b tetramers on CD4/CD8 double-positive thymocytes from Tap1^−/− OT-I TCR-transgenic mice, 100 μM cytochalasin D, 37 °C, 90 min, flow cytometry; Fig. 6b; result in words
Method: CD4/CD8 double-positive thymocytes from Tap1^−/− OT-I TCR transgenic mice (6- to 8-week-old females) were stained with indicated peptide-K^b tetramers (MBL) in the presence of 100 μM cytochalasin D (Sigma-Aldrich) at 37 °C for 90 min (refs [31], [44]) and were analysed using flow cytometry.

OT-I TCR [4] = test: agonist activity assay (T-cell stimulation, CD69), mature OT-I cells; format: cell-based, mouse; settings: splenocytes from Rag^−/− OT-I TCR transgenic mice (n=3), peptide 5 h, CD69 on CD8^+CD44^lo cells; Fig. 6d; result in words
Method: Spleen cells from Rag1^−/− OT-I TCR transgenic mice (8-week-old females) were cultured in the presence of peptides for 5 h. CD69 expression on CD8^+CD44^lo cells was analysed using flow cytometry using anti-CD69 antibodies (H1.2F3; BD Pharmingen, 10 μg ml^−1).

- affinity to OT-I TCR by MHC-tetramer-binding assay (OT-I TCR [3]): high affinity
Sequence: SIINFEKL [OVAp]
- CD4/CD8 double-positive cells in FTOC ([1]; Fig. 7a,b): depletion of CD4/CD8 double-positive cells
- number of OT-I TCR^high (Vα2^high) CD8 single-positive thymocytes in FTOC, compared with unrelated peptide gp33 ([1]; Fig. 7b, n=3, Student's t-test): clear decrease
- Effects on DP thymocytes (thymic selection of OT-I thymocytes) (OT-I thymocytes): mediates negative selection; also recorded: Negative selector, original Ag
- affinity to OT-I TCR by CD4/CD8 dulling assay (OT-I TCR [2]): high affinity
- affinity to OT-I TCR by agonist activity assay (OT-I TCR [4]): high affinity
